Experimental data reported in publication PMC9853918 (Journal of chemical information and modeling, 2022).

Assays:
[1] = biological target: (UniProt D5GU71); test: βGUS; type: biochemical, uncultured bacterium
[2] = system: H11G11-BG βGUS; test: βGUS; type: biochemical, uncultured bacterium; conditions: for efficacy: 0.5 nM GUS, 100 μM 4MUG, 1 hr at room temperature, negative = inhibition; for curve class (CC): dose-response curve class

Chain of (UniProt D5GU71) (D5GU71 1-754): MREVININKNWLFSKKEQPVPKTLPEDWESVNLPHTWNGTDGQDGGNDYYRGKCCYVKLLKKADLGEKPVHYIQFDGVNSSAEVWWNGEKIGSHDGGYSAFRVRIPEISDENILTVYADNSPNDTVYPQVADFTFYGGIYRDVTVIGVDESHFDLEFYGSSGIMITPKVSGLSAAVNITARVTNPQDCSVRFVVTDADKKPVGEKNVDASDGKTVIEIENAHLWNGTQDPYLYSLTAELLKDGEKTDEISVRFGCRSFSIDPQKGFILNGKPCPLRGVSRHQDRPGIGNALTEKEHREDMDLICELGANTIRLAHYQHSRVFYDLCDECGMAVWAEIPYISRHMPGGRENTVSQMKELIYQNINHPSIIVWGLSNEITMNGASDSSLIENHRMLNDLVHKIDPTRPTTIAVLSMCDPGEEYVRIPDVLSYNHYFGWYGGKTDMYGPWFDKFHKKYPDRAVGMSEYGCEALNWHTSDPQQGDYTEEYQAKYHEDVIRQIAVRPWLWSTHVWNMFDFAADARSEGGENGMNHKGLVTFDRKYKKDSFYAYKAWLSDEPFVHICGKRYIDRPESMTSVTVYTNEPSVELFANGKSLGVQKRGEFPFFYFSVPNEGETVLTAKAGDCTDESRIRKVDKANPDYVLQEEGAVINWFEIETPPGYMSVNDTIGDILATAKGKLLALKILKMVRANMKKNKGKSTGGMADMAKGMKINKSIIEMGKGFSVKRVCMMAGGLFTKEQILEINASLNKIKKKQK

Row | SMILES | IC50 [1] [µM] | efficacy [2] [%] | curve class (CC) [2]
1 | O=C(Nc1cccc(-c2nc3ncccc3o2)c1)c1ccc(-c2cccc(Cl)c2Cl)o1 [NCGC00099510, 5-(2,3-dichlorophenyl)-N-(3-(oxazolo[4,5-b]pyridine-2-yl)phenyl)furan-2-carboxamide] | 9.6 | −70 | −1.2
2 | c1ccc(Nc2cc3c(cn2)CN(CC2CC2)CCN3)cc1 [NCGC00411059, 4-(cyclopropylmethyl)-N-phenyl-2,3,4,5-tetrahydro-1H-pyrido[4,3-e][1,4]diazepin-8-amine] | – | −72 | −2.2
